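Exposure lasted 48 hours, with cells grown in 96-well plates and compounds tested at five concentrations. GI50 marks 50% less growth. Definition used: TGI = concentration required for complete inhibition of growth.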
Legend:
Assay in all cases: NCI-60 cell line screen, 48 h; in the data active means GI50 below about 0.43 µM; inactive means the rest
A498 renal = test system: A498 renal
NCI-H226 lung = test system: NCI-H226 lung
OVCAR-3 ovarian = test system: OVCAR-3 ovarian
M14 melanoma = test system: M14 melanoma
SK-MEL-5 melanoma = test system: SK-MEL-5 melanoma
SW-620 colon = test system: SW-620 colon
SK-MEL-2 melanoma = test system: SK-MEL-2 melanoma
MDA-MB-231 breast = test system: MDA-MB-231 breast
SK-MEL-28 melanoma = test system: SK-MEL-28 melanoma
OVCAR-5 ovarian = test system: OVCAR-5 ovarian
NCI/ADR-RES ovarian = test system: NCI/ADR-RES ovarian
SF-539 CNS = test system: SF-539 CNS
EKVX NSCLC = test system: EKVX NSCLC
CCRF-CEM leukemia = test system: CCRF-CEM leukemia
T-47D breast = test system: T-47D breast
SK-OV-3 ovarian = test system: SK-OV-3 ovarian
RXF 393 renal = test system: RXF 393 renal
K-562 leukemia = test system: K-562 leukemia
BT-549 breast = test system: BT-549 breast
DU-145 prostate = test system: DU-145 prostate
MOLT-4 leukemia = test system: MOLT-4 leukemia
HS 578T breast = test system: HS 578T breast
HCT-15 colon = test system: HCT-15 colon
MALME-3M melanoma = test system: MALME-3M melanoma
A549 NSCLC = test system: A549 NSCLC
HT29 colon = test system: HT29 colon
UACC-257 melanoma = test system: UACC-257 melanoma
NCI-H460 lung = test system: NCI-H460 lung
KM12 colon = test system: KM12 colon
MCF7 breast = test system: MCF7 breast
NCI-H522 lung = test system: NCI-H522 lung
LOX IMVI melanoma = test system: LOX IMVI melanoma
HOP-92 NSCLC = test system: HOP-92 NSCLC
SF-295 CNS = test system: SF-295 CNS
COLO 205 colon = test system: COLO 205 colon
U251 CNS = test system: U251 CNS
SF-268 CNS = test system: SF-268 CNS
TK-10 renal = test system: TK-10 renal
PC-3 prostate = test system: PC-3 prostate
SR leukemia = test system: SR leukemia
OVCAR-8 ovarian = test system: OVCAR-8 ovarian
RPMI-8226 leukemia = test system: RPMI-8226 leukemia
UACC-62 melanoma = test system: UACC-62 melanoma
OVCAR-4 ovarian = test system: OVCAR-4 ovarian
MDA-MB-435 = test system: MDA-MB-435
SN12C renal = test system: SN12C renal
HCC-2998 colon = test system: HCC-2998 colon
UO-31 renal = test system: UO-31 renal
NCI-H23 lung = test system: NCI-H23 lung
HCT-116 colon = test system: HCT-116 colon
ACHN renal = test system: ACHN renal
CAKI-1 renal = test system: CAKI-1 renal
IGROV1 ovarian = test system: IGROV1 ovarian
SNB-75 CNS = test system: SNB-75 CNS
HL-60(TB) leukemia = test system: HL-60(TB) leukemia
SNB-19 CNS = test system: SNB-19 CNS
786-0 renal = test system: 786-0 renal
HOP-62 NSCLC = test system: HOP-62 NSCLC

O=C(c1cccnc1)c1cc(-c2ccccn2)c(=O)n2ccccc12
> 100 µM: TGI (A498 renal) | TGI (NCI-H226 lung) | TGI (OVCAR-3 ovarian) | TGI (M14 melanoma) | TGI (SK-MEL-5 melanoma) | TGI (SW-620 colon) | TGI (SK-MEL-2 melanoma) | TGI (MDA-MB-231 breast) | TGI (SK-MEL-28 melanoma) | TGI (OVCAR-5 ovarian) | TGI (NCI/ADR-RES ovarian) | TGI (SF-539 CNS) | TGI (EKVX NSCLC) | TGI (CCRF-CEM leukemia) | TGI (T-47D breast) | TGI (SK-OV-3 ovarian) | TGI (RXF 393 renal) | TGI (K-562 leukemia) | TGI (BT-549 breast) | TGI (DU-145 prostate) | TGI (MOLT-4 leukemia) | TGI (HS 578T breast) | TGI (HCT-15 colon) | TGI (MALME-3M melanoma) | TGI (A549 NSCLC) | TGI (HT29 colon) | TGI (UACC-257 melanoma) | TGI (NCI-H460 lung) | TGI (KM12 colon) | TGI (MCF7 breast) | TGI (NCI-H522 lung) | TGI (LOX IMVI melanoma) | TGI (HOP-92 NSCLC) | TGI (SF-295 CNS) | TGI (COLO 205 colon) | TGI (U251 CNS) | TGI (SF-268 CNS) | TGI (TK-10 renal) | TGI (PC-3 prostate) | TGI (SR leukemia) | TGI (OVCAR-8 ovarian) | TGI (RPMI-8226 leukemia) | TGI (UACC-62 melanoma) | TGI (OVCAR-4 ovarian) | TGI (MDA-MB-435) | TGI (SN12C renal) | TGI (HCC-2998 colon) | TGI (UO-31 renal) | TGI (NCI-H23 lung) | TGI (HCT-116 colon) | TGI (ACHN renal) | TGI (CAKI-1 renal) | TGI (IGROV1 ovarian) | TGI (SNB-75 CNS) | TGI (HL-60(TB) leukemia) | TGI (SNB-19 CNS) | TGI (786-0 renal) | TGI (HOP-62 NSCLC)
inactive: GI50 (A498 renal) > 100 µM | GI50 (NCI-H226 lung) > 100 µM | GI50 (OVCAR-3 ovarian) > 100 µM | GI50 (M14 melanoma) > 100 µM | GI50 (SK-MEL-5 melanoma) > 100 µM | GI50 (SW-620 colon) > 100 µM | GI50 (SK-MEL-2 melanoma) > 100 µM | GI50 (MDA-MB-231 breast) > 100 µM | GI50 (SK-MEL-28 melanoma) > 100 µM | GI50 (OVCAR-5 ovarian) > 100 µM | GI50 (NCI/ADR-RES ovarian) > 100 µM | GI50 (SF-539 CNS) > 100 µM | GI50 (EKVX NSCLC) > 100 µM | GI50 (CCRF-CEM leukemia) > 100 µM | GI50 (T-47D breast) > 100 µM | GI50 (SK-OV-3 ovarian) > 100 µM | GI50 (RXF 393 renal) > 100 µM | GI50 (K-562 leukemia) > 100 µM | GI50 (BT-549 breast) > 100 µM | GI50 (DU-145 prostate) > 100 µM | GI50 (MOLT-4 leukemia) > 100 µM | GI50 (HS 578T breast) > 100 µM | GI50 (HCT-15 colon) > 100 µM | GI50 (MALME-3M melanoma) > 100 µM | GI50 (A549 NSCLC) > 100 µM | GI50 (HT29 colon) > 100 µM | GI50 (UACC-257 melanoma) > 100 µM | GI50 (NCI-H460 lung) > 100 µM | GI50 (KM12 colon) > 100 µM | GI50 (MCF7 breast) > 100 µM | GI50 (NCI-H522 lung) > 100 µM | GI50 (LOX IMVI melanoma) > 100 µM | GI50 (HOP-92 NSCLC) > 100 µM | GI50 (SF-295 CNS) > 100 µM | GI50 (COLO 205 colon) > 100 µM | GI50 (U251 CNS) > 100 µM | GI50 (SF-268 CNS) > 100 µM | GI50 (TK-10 renal) > 100 µM | GI50 (PC-3 prostate) > 100 µM | GI50 (SR leukemia) > 100 µM | GI50 (OVCAR-8 ovarian) > 100 µM | GI50 (RPMI-8226 leukemia) > 100 µM | GI50 (UACC-62 melanoma) > 100 µM | GI50 (OVCAR-4 ovarian) > 100 µM | GI50 (MDA-MB-435) > 100 µM | GI50 (SN12C renal) > 100 µM | GI50 (HCC-2998 colon) > 100 µM | GI50 (UO-31 renal) > 100 µM | GI50 (NCI-H23 lung) > 100 µM | GI50 (HCT-116 colon) > 100 µM | GI50 (ACHN renal) > 100 µM | GI50 (CAKI-1 renal) > 100 µM | GI50 (IGROV1 ovarian) > 100 µM | GI50 (SNB-75 CNS) > 100 µM | GI50 (HL-60(TB) leukemia) > 100 µM | GI50 (SNB-19 CNS) > 100 µM | GI50 (786-0 renal) > 100 µM | GI50 (HOP-62 NSCLC) > 100 µM

Source: PubChem BioAssay (NCI)
